Ends that are not written are not given here.
Key:
[1] = target: T1, recombinant LZCC protein (dimerized FOXP3) (Mus musculus, UniProt Q99JB6); experiment: Chemical crosslinking (BS3 or DSS) of recombinant LZCC with SAH-FOXP3 peptides; assay type: biochemical; settings: 2 hours room temperature, 1 mM BS3 or DSS
T1 construct: the LZCC portion of FOXP3 (FOXP3 S189-K276); made in house
T1 sequence (Q99JB6 189-276): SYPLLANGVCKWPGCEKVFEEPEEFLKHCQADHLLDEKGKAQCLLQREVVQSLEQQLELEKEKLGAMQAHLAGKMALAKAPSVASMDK
Description: FIG. 8A-B. Chemical Crosslinking. SAH-FOXP3 peptides incubated with recombinant LZCC protein for 2 hours at room temperature in 1×PBS. 1 mM of the chemical crosslinker BS3 or DSS was added to each tube for 30 mins at room temperature. Samples were denatured and then separated by electrophoresis on a NuPage SDS 10/a Bis-Tris gel following the manufacturer's protocol (Invitrogen). Protein was imaged after staining the gel with coomassie on the Odyssey Imager. […] In some cases, SAH peptide crosslinks with monomeric FOXP3 alone

DNA probe = experiment: EMSA control, peptide alone with DNA probe (non-specific binding); settings: 50 μM peptide
Description: FIG. 9A-C. Electrophoretic mobility shift assays (EMSA). (A) SAHs block FOXP3 binding to cognate DNA; a comparison of stapled and unstapled peptides. EMSA with FOXP3ΔN incubated with increasing concentrations of different SAH-FOXP3 are shown. Labeled probe containing consensus sequence (A′GT25) for FOXP3 was incubated at room temperature for 15 mins with recombinant FOXP3ΔN and increasing concentrations of SAH peptide [3 μM to 25 μM]. The last lane in each set is 25 μM of peptide alone with DNA probe. […] IRDye700 labeled probe containing consensus sequence for NFAT was incubated at room temperature for 15 mins with 100 pmole recombinant NFAT-DBD and peptide or DMSO using the Odyssey Infrared EMSA kit per manufacturer's protocol (Li-Cor). Reactions were then separated by electrophoresis on a 10% TBE gel and imaged using an Odyssey Imager (Li-Cor).
To exclude non-specific binding to the negatively charged DNA probe, a liability of using charged peptides in EMSAs, SAH-FOXP3DDs were incubated with each probe at up to twice the highest concentration used. […] Next, SAH-FOXP3DDs were incubated with recombinant NFAT (NFAT DBDW400-W680) and the Il-2 reporter oligonucleotide ARRE2 element as a further test of specificity. SAH-FOXP3DDs were unable to inhibit NFAT:DNA binding, further validating on-target specificity of the peptides.

FOXP3-DNA binding = experiment: EMSA with FOXP3 reticulocyte lysate (IVTT) and IRDye700 DNA probe, unstapled peptides; assay type: biochemical; settings: peptides 50-200 μM, A′A1A2 probe
Description: FIG. 5A-C. Unstapled FOXP3 peptides are able to alter FOXP3-DNA binding at high concentrations. Preparation of FOXP3 proteins through In Vitro Transcription and Translation (IVTT) reticulocyte lysate: T7 DNA vectors (1 μg/25 μL) were incubated at 30° C. for 1.5 hr in reticulocyte lysate with T7 polymerase, amino acids and RNAsin per the manufacturer's protocol (TnT Coupled Reticulocyte Lysate System, Promega). IRDye700 labeled probe containing consensus sequence (A′A1A2; a DNA sequence previously published to bind FOXP3) for FOXP3 was incubated at room temperature for 15 mins with 2 μL FOXP3 reticulocyte lysate, in the presence of peptides (50-200 μM) using the Odyssey Infrared EMSA kit per manufacturer's protocol (Li-Cor). Reactions were then separated by electrophoresis on a 10% TBE gel and imaged using an Odyssey Imager (Li-Cor).

FOXP3:NFAT1 = experiment: IL-2 promoter ARRE2 luciferase reporter, FOXP3 repression of NFAT1:AP1 transcription; assay type: cell-based, human; settings: HEK cells
Description: FIG. 2A-E. Design, biochemical characterization, and functional testing of SAH-FOXP3NFATs. (A) Design strategy for SAHs targeting the FOXP3:NFAT1 dimerization interface. (B) CD showing that i(i+4) and i(i+7) stapled SAH-FOXP3NFATs and their point mutant controls are helical in solution. […] (C&D) Dose dependent inhibition of FOXP3-mediated NFAT repression with 2.5 ng (D) and 10 ng (E) FOXP3 DNA. Point mutant controls have no effect thus confirming specificity of action.
Experiments were conducted during development of embodiments herein to design stabilized α-helices of the FOXP3:NFAT1 interface (SAH-FOXP3NFAT). Using a similar approach as above, stapled peptides based on a FOXP3 α-helix, which is responsible for NFAT1 binding (FIG. 2A), were designed. Non-natural amino acids were inserted in either the i,i+4 (SAHFOXP3NFAT(i,i+4)) or i,i+7(SAHFOXP3NFAT(i,i+7)) positions. Hydrocarbon stapling of the FOXP3NFAT peptides and point mutants similarly stabilizes their helicity (FIG. 2B). The peptides were tested for inhibition of FOXP3:NFAT1 binding. Co-expression of increasing amounts of FOXP3 DNA with constitutively active NFAT1 dose dependently represses NFAT1: AP1 transcriptional activity at an IL-2 promoter ARRE2 luciferase reporter element in transfected human embryonic kidney (HEK) cells (FIG. 2C). […] Confirming specificity of action, neither point mutant control SAH had any effect (FIG. 2E). […] Possibilities include differences in cellular penetrance, binding efficiency, or intracellular trafficking between the two SAHs.

Tregs [2] = experiment: Quantitative PCR of mRNA in treated Tregs; assay type: cell-based, mouse (C57BL/6 FOXP3IRES-GFP); settings: naïve Tregs with IL-2 and CD3/CD28 microbeads
Description: (§1) FIG. 12A-B. SAH-FOXP3DD peptides are able to alter cellular expression (protein and mRNA) of FOXP3 target genes. Conventional T cells (CD4+ CD25−) and regulatory T cells (CD25+ GFP+) were isolated from CD4+ cells enriched from spleen and draining lymph nodes of FOXP3-IRES-GFP. Tregs were treated at 1000 cells per μL with peptides in OptiMem for 2 hours before being quenched with completed advanced DMEM and then stimulated with CD3/CD28 beads. Gene expression was determined using qRT-PCR 4 hours after stimulation. Membrane (live cell) or internal (fixed cell) expression of proteins was determined using flow cytometry 16 hrs after stimulation.
(§2) Tregs and Tcons were stimulated from C57BL/6 FOXP3IRES-GFP with IL-2 and CD3/CD28 microbeads for seven days and treated them with a dose titration of SAH-FOXP3DD10, or unstapled control, and measured membrane expression of CD127 (IL7Ra). Tregs and Tcons normally downregulate CD127 mRNA expression following seven days of stimulation.

Tregs [3] = experiment: Flow cytometry of protein expression in treated Tregs; assay type: cell-based, mouse (C57BL/6 FOXP3IRES-GFP); settings: dose titration
Description: as §1, §2

[4] = test system: regulatory T cells (Tregs); experiment: In vitro Treg suppression assay (Tcon proliferation, flow cytometry); assay type: cell-based, mouse (C57BL/6 FOXP3IRES-GFP)
[5] = target: T2, recombinant FOXP3 leucine zipper coiled-coiled (LZCC) domain (Mus musculus, UniProt Q99JB6); experiment: Fluorescence polarization assay, FITC-peptide binding to LZCC; settings: 50 nM FITC-peptide, 1×PBS pH 8
T2 construct: the LZCC portion of FOXP3 (FOXP3 S189-K276); made in house
T2 sequence (Q99JB6 189-276): T1 sequence (Q99JB6 189-276)
Description: FIG. 7A-D. Fluorescence polarization assay to determine SAH-FOXP3 binding to recombinant FOXP3 leucine zipper coiled-coiled (LZCC) domain. (A) Serially diluted recombinant LZCC was incubated with 50 nM FITC-peptide in 1×PBS pH 8 for 5-10 mins and then fluorescent polarization was measured using a SpectraMax spectrometer. […] (B—C) Serially diluted recombinant LZCC (A) or FOXP3 ΔN (B) was incubated with 50 nM FITC-peptide in 1×PBS pH 8 for 5-10 mins followed by fluorescent polarization measurement using a SpectraMax spectrometer. (D) Shift of composite binding curves indicate increased affinity for the leucine zipper coiled-coiled (LZCC) domain and FOXP3ΔN.
A library of hydrocarbon stapled peptides were synthesized representing these templates (SAH-FOXP3DDs) that incorporated three different hydrocarbon staple positions along the solvent-exposed face so as to avoid disruption of critical contact points between ‘a’ and ‘d’ residues of the coiled-coil. Non-natural amino acids were inserted at positions i,i+7 so that the hydrocarbon staples face away from the dimerization interface (FIG. 1A). […] Both native and stapled FOXP3DD peptides were α-helical in solution at a wide range of temperatures (20-50° C.) (FIG. 1B). To achieve solubility of the unstapled constructs for CD evaluation, 20% acetonitrile:water solution was used. […]

F8KHCQADXLLDEKGRAQCLLQREMVQSLEQQLVLEKEKL [SAH7, Ac-/-Am; hFOXP3 (214-253); staple (1215, H222)Z]
amount of dimerized FOXP3 protein after crosslinking [1]: modest decrease

HLLDEKGRAQCLLQREMVQSLE8QLVLEKXKLSAMQAHLAG [SAH3, Ac-/-Am; hFOXP3 (222-262); staple (Q244, E251)C]
binding of peptide to DNA probe (DNA probe): minimal binding

KGRAQCLLQREMVQSLE8QLVLEKXKLSAMQAH [SAH-FOXP3DD4, Ac-/-Am; hFOXP3 (227-259); staple (Q244, E251)C]
binding of peptide to DNA probe (DNA probe): minimal binding

LLDEKGRAQCL8QREMVQXLEQQLVLEKEK [SAH9, Ac-/-Am; hFOXP3 (223-252); staple (L234, S241)B]
amount of dimerized FOXP3 protein after crosslinking [1]: modest decrease

LLDEKGRAQCLLQREMVQSLEQQLVLEKEK (LLDEKGRAQCLLQREMVQSLEQQLVLEKEK-NH2) [223-252, free N-term/-Am; hFOXP3 (223-252); unstapled; B4 has the same range]
dissociation of FOXP3 from DNA (EMSA) (FOXP3-DNA binding): dissociate FOXP3 from DNA

QRTXNEIXHWFTRNFAFF [SAH-FOXP3NFAT(i,i+4), β-Ala/Ac; i,i+4 stapled FOXP3/NFAT peptide]
inhibition of FOXP3-mediated repression of NFAT1:AP1 luciferase activity (FOXP3:NFAT1; 2.5 ng FOXP3 DNA (low dose)): inhibited this FOXP3-mediated repression | inhibition of FOXP3-mediated repression of NFAT1:AP1 luciferase activity (FOXP3:NFAT1; 2.5 ng FOXP3 DNA (low dose), listed as FOXP3NFAT(i,i+4)): fully inhibited | inhibition of FOXP3-mediated repression of NFAT1:AP1 luciferase activity (FOXP3:NFAT1; 10 ng FOXP3 DNA (excess)): inhibited this FOXP3-mediated repression | inhibition of FOXP3-mediated repression of NFAT1:AP1 luciferase activity (FOXP3:NFAT1; 10 ng FOXP3 DNA (excess), listed as FOXP3NFAT(i,i+4)): less able to inhibit

QRTXNEIYHWXTRNFAFF [SAH-FOXP3NFAT(i,i+7), β-Ala/Ac; i,i+7 stapled FOXP3/NFAT peptide]
inhibition of FOXP3-mediated repression of NFAT1:AP1 luciferase activity (FOXP3:NFAT1; 2.5 ng FOXP3 DNA (low dose)): inhibited this FOXP3-mediated repression | inhibition of FOXP3-mediated repression of NFAT1:AP1 luciferase activity (FOXP3:NFAT1; 2.5 ng FOXP3 DNA (low dose), listed as FOXP3NFAT(I,i+7)): dose-responsively inhibited | inhibition of FOXP3-mediated repression of NFAT1:AP1 luciferase activity (FOXP3:NFAT1; 10 ng FOXP3 DNA (excess)): inhibited this FOXP3-mediated repression | inhibition of FOXP3-mediated repression of NFAT1:AP1 luciferase activity (FOXP3:NFAT1; 10 ng FOXP3 DNA (excess), listed as FOXP3NFAT(I,i+7)): dose-responsively inhibited

RAQCLLQREMVQSLE8QLVLEKXKLSAMQAH [SAH-FOXP3DD10, Ac-/-Am; hFOXP3 (229-259); staple (Q244, E251)C]
FOXP3 mRNA expression (Tregs [2]): correlative increase | IL-2 mRNA expression (Tregs [2]): correlative increase | expression of CD44 (Tregs [3]; Tregs stimulated seven days): dose dependent decrease | expression of CD69 (Tregs [3]; Tregs stimulated seven days): dose dependent decrease | membrane expression of CD127 (IL7Ra) (Tregs [3]; Tregs stimulated with IL-2 and CD3/CD28 microbeads for seven days): dose dependent increase | degree of Treg inhibition ([4]; in vitro expanded Tregs): lower, but still present | ability of treated Tregs to inhibit Tcon proliferation ([4]; naïve Tregs pretreated for 2 hours): unable to inhibit the proliferation | binding of peptide to DNA probe (DNA probe): minimal binding

RAQCLLQREMVQSLEQQLVLEKEKLSAMQAH (Ac-RAQCLLQREMVQSLEQQLVLEKEKLSAMQAH-NH2) [229-259, Ac-/-Am; hFOXP3 (229-259); unstapled]
dissociation of FOXP3 from DNA (EMSA) (FOXP3-DNA binding): dissociate FOXP3 from DNA

SGSGSRAQCLLQREMVQSLEQQLVLEKEK (Ac-SGSGSRAQCLLQREMVQSLEQQLVLEKEK-NH2) [B2V3, Ac-/-Am; SGSGS hFOXP3 (229-252); unstapled native peptide]
binding to recombinant LZCC, in words [5]: much lower affinity

SGSRAQCLLQREMVQSLEQQLVLEKEK (Ac-SGSRAQCLLQREMVQSLEQQLVLEKEK-NH2) [B2V2, Ac-/-Am; SGS hFOXP3 (229-252); unstapled native peptide]
binding to recombinant LZCC, in words [5]: much lower affinity
